# Patent publication US4716172A, “4-substituted octahydroquinolizine analgesic compounds and octahydroquinolizinium intermediates” (McNeilab, Inc., priority 1986, dated 1987)
# Where two headings read alike, the source gives them in different places.
# System: acetylcholine-bromide-induced abdominal constriction (writhing)
# Assay: Mouse Acetylcholine-Bromide-Induced Abdominal Constriction Assay
# Format: in vivo
# Details: for ED50: po, read-out: ED50 (dose which inhibits writhing by 50%)
# Method: Mouse Acetylcholine-Bromide-Induced Abdominal Constriction Assay:
# The mouse acetylcholine-induced abdominal constriction assay, as described by Collier et al. in Brit. J. Pharmacol. Chem. Ther., 32:295-310, 1968, with minor modifications was the test used to assess analgesic potency. The test drugs or appropriate vehicle were administered orally (p.o.) and 30 minutes later the animals received an intraperitoneal (i.p.) injection of 5.5 mg/kg acetylcholine bromide (Matheson, Coleman and Bell, East Rutherford, NJ). The mice were then placed in groups of four into glass bell jars and observed for a ten minute observation period for the occurrence of a writhe (defined as a wave of constriction and elongation passing caudally along the abdominal wall, accompanied by a twisting of the trunk and followed by extension of the hind limbs). The percent inhibition of writhing (equated to % analgesia) was calculated as follows: The % inhibition of writhing, i.e., % analgesia, is equal to the difference between the No. of control animals writhing and the No. of drug-treated animals writhing times 100 divided by the No. of control animals writhing.
# At least 20 animals were used for control and in each of the drug treated groups. Four doses were used to determine each dose response curve and ED50 (that does which inhibits writhing by 50%). The ED50 values and their 95% fiducial limits were determined by a computer assisted probit analysis.
Structure (SMILES),ED50 (Mus musculus) [mg/kg],further results
"Clc1cccc(Cl)c1[C@@H]1CCC[C@@H]2CCCCN21.[O-][Cl+3]([O-])([O-])O (relative stereo) [Example 1e, trans-4-(2,6-dichlorophenyl)octahydro-2H-quinolizine perchlorate]",5,–
"Cl.c1ccc(Oc2ccc([C@@H]3CCC[C@@H]4CCCCN43)cc2)cc1 (relative stereo) [Example 2e, trans-Octahydro-4-(4-phenoxyphenyl)-2H-quinolizine Hydrochloride]",–,"ED50 (mouse, p.o., 30 minutes before i.p. 5.5 mg/kg acetylcholine bromide, ten minute observation): 8 mg/kg"
"COc1cccc([C@@H]2CCC[C@@H]3CCCCN32)c1.Cl (relative stereo) [Example 3e, trans-Octahydro-4-(3-methoxyphenyl)-2H-quinolizine Hydrochloride]",–,"% inhibition of writhing (% analgesia), printed in ED50 column (mouse, p.o., at 30 mg/Kg, 30 minutes before i.p. 5.5 mg/kg acetylcholine bromide, ten minute observation): 40%"
"Cl.Ic1ccccc1[C@@H]1CCC[C@@H]2CCCCN21 (relative stereo) [Example 4e, trans-Octahydro-4-(2-iodophenyl)-2H-quinolizine Hydrochloride]",30,–
"Brc1ccccc1[C@@H]1CCC[C@@H]2CCCCN21.Cl (relative stereo) [Example 5e, trans-4(2-Bromophenyl)octahydro-2H-quinolizine Hydrochloride]",23,–
